According to patent publication US20160257697A1, “THIOPHENE-SUBSTITUTED TETRACYCLIC COMPOUNDS AND METHODS OFUSE THEREOF FOR THE TREATMENT OF VIRAL DISEASES” (priority 2013, published 2016):
pIC50: −log10 of the molar value. Read-outs that look alike come from different tables or passages of the source.

How the values were obtained:
Assay in all cases: microbe, parasite or virus in culture
Format in all cases: cell-based, Hepatitis C virus (HCV)
HCV replicon 1AY93H = settings: read-out: 1A Y93H IC50; replicon 1AY93H; Replicon Assay A
In short: (§1)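 Compound is added to replicon cells plated at 2000 cells/well (0.5% DMSO, 5% FBS). After 3 days the cells are washed and lysed, and HCV RNA and cyclophilin mRNA are quantified by multiplex RT-PCR against a standard curve of known replicon total RNA.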

HCV replicon 1A = settings: replicon 1A, Replicon Assay A
In short: as §1

HCV replicon 2B = settings: Replicon Assay A; for pIC50: read-out: 2B IC50, replicon 2B
In short: as §1

HCV replicon 1AQ30D = settings: Replicon Assay B; for pIC50: read-out: 1A Q30D IC50, replicon 1AQ30D; for IC50: Hepatitis C virus, read-out: 1A Q30D IC50 (nM), replicon 1AQ30D
HCV replicon 1B = settings: replicon 1B, Replicon Assay B

Structure (SMILES) | pIC50 (HCV replicon 1AY93H) | pIC50 (HCV replicon 1A) | pIC50 (HCV replicon 2B) | pIC50 (HCV replicon 1AQ30D) | pIC50 (HCV replicon 1B) | IC50 (HCV replicon 1AQ30D) [nM] | pIC50 (HCV replicon 1B; Hepatitis C virus) | IC50 (HCV replicon 2B; Hepatitis C virus, read-out: 2B IC50 (nM), replicon 2B) [nM] | pIC50 (HCV replicon 1A; Hepatitis C virus)
COC(=O)N[C@H](C(=O)N1CCC[C@H]1c1ncc(-c2cc(F)c3c(c2)OC(c2ccc(C4CC4)s2)n2c-3cc3cc(-c4cnc([C@@H]5CCCN5C(=O)[C@@H](NC(=O)OC)C5CCOCC5)[nH]4)ccc32)[nH]1)C1CCOCC1 (single isomer, unassigned) [Compound 280] | 11.52 | 11.68 | 11.52 | 11.30 | 11.59 |  |  |  | 
CCc1ccc(C2Oc3cc(-c4cnc([C@@H]5CCCN5C(=O)C(NC(=O)OC)C5CCOC(C)(C)C5)[nH]4)cc(F)c3-c3cc4cc(-c5cnc([C@@H]6CCCN6C(=O)C(NC(=O)OC)C6CCOC(C)(C)C6)[nH]5)ccc4n32)s1 (single isomer, unassigned) [Compound 295] | 11.30 | 11.49 | 11.40 | 10.77 | 11.55 |  |  |  | 
CCc1ccc(C2Oc3cc(-c4cnc([C@@H]5CCCN5C(=O)C(NC(=O)OC)C5CCOC(C)(C)C5)[nH]4)cc(F)c3-c3cc4cc(-c5cnc([C@@H]6CCCN6C(=O)C(NC(=O)OC)C6CCOC(C)(C)C6)[nH]5)ccc4n32)s1 (single isomer, unassigned) [Compound 296] | 11.70 | 11.55 | 11.30 | 11.30 | 11.48 |  |  |  | 
CCc1ccc(C2Oc3cc(-c4cnc([C@@H]5CCCN5C(=O)C(NC(=O)OC)C5C[C@@H](C)O[C@@H](C)C5)[nH]4)cc(F)c3-c3cc4cc(-c5cnc([C@@H]6CCCN6C(=O)C(NC(=O)OC)C6C[C@@H](C)O[C@@H](C)C6)[nH]5)ccc4n32)s1 (single isomer, unassigned) [Compound 300] | 11.70 | 11.62 | 11.52 |  |  | 0.006 | 11.49 |  | 
COC(=O)NC(C(=O)N1CCC[C@H]1c1ncc(-c2cc(F)c3c(c2)OC(c2ccc(C4CC4)s2)n2c-3cc3cc(-c4cnc([C@@H]5CCCN5C(=O)C(NC(=O)OC)C5C[C@@H](C)O[C@@H](C)C5)[nH]4)ccc32)[nH]1)C1C[C@@H](C)O[C@@H](C)C1 (single isomer, unassigned) [Compound 301] | 9.96 | 11.60 |  |  |  | 0.33 | 11.70 | 0.037 | 
COC(=O)N[C@H](C(=O)N1CCC[C@H]1c1ncc(-c2cc(F)c3c(c2)OC(c2ccsc2)n2c-3cc3cc(-c4cnc([C@@H]5CCCN5C(=O)[C@@H](NC(=O)OC)C(C)C)[nH]4)ccc32)[nH]1)C(C)C (single isomer, unassigned) [Compound 317] | 9.96 |  | 9.03 |  |  | 2.58 | 11.80 |  | 11.92
COC(=O)N[C@H](C(=O)N1CCC[C@H]1c1ncc(-c2ccc3c(c2)OC(c2ccc(C4CC4)s2)n2c-3cc3cc(-c4cnc([C@@H]5CCCN5C(=O)[C@@H](NC(=O)OC)C5CCOCC5)[nH]4)ccc32)[nH]1)C(C)C (single isomer, unassigned) [Compound 335] | 11.28 | 11.60 | 11.40 |  |  | 0.0639 | 11.92 |  | 
CCc1ccc(C2Oc3cc(-c4cnc([C@@H]5CCCN5C(=O)[C@@H](NC(=O)OC)C(C)C)[nH]4)cc(F)c3-c3cc4cc(-c5cnc([C@@H]6CCCN6C(=O)[C@@H](NC(=O)OC)C6CCOCC6)[nH]5)ccc4n32)s1 (single isomer, unassigned) [Compound 336] | 10.21 |  | 9.89 | 8.82 |  |  | 11.96 |  | 11.66
CCc1ccc(C2Oc3cc(-c4cnc([C@@H]5CCCN5C(=O)[C@@H](NC(=O)OC)C(C)C)[nH]4)cc(F)c3-c3cc4cc(-c5cnc([C@@H]6CCCN6C(=O)[C@@H](NC(=O)OC)C6CCOCC6)[nH]5)ccc4n32)s1 (single isomer, unassigned) [Compound 337] | 11.68 | 11.80 | 11.41 | 10.58 | 11.80 |  |  |  | 
COC(=O)NC(C(=O)N1CCC[C@H]1c1ncc(-c2ccc3c(c2)cc2n3C(c3ccc(C4CC4)s3)Oc3cc(-c4cnc([C@@H]5CCCN5C(=O)[C@@H](NC(=O)OC)C(C)C)[nH]4)cc(F)c3-2)[nH]1)C1C2COCC21 (single isomer, unassigned) [Compound 339] | 11.33 | 11.70 | 10.53 |  |  | 0.133 | 11.66 |  | 
COC(=O)NC(C(=O)N1CCC[C@H]1c1ncc(-c2ccc3c(c2)cc2n3C(c3ccc(C4CC4)s3)Oc3cc(-c4cnc([C@@H]5CCCN5C(=O)[C@@H](NC(=O)OC)C(C)C)[nH]4)cc(F)c3-2)[nH]1)C1CCCCO1 (single isomer, unassigned) [Compound 340] | 10.68 |  | 10.67 | 9.70 |  |  | 11.60 |  | 11.96
COC(=O)NC(C(=O)N1CCC[C@H]1c1ncc(-c2ccc3c(c2)cc2n3C(c3ccc(C4CC4)s3)Oc3cc(-c4cnc([C@@H]5CCCN5C(=O)[C@@H](NC(=O)OC)C(C)C)[nH]4)cc(F)c3-2)[nH]1)C1CCCCO1 (single isomer, unassigned) [Compound 342] | 10.16 | 11.80 | 9.78 | 8.97 | 11.59 |  |  |  | 
COC(=O)NC(C(=O)N1CCC[C@H]1c1ncc(-c2ccc3c(c2)cc2n3C(c3ccc(C4CC4)s3)Oc3cc(-c4cnc([C@@H]5CCCN5C(=O)[C@@H](NC(=O)OC)C(C)C)[nH]4)cc(F)c3-2)[nH]1)C1CCCCO1 (single isomer, unassigned) [Compound 343] | 9.43 | 12.00 | 9.08 | 9.15 | 11.64 |  |  |  | 
CCCc1ccc(C2Oc3cc(-c4cnc([C@@H]5CCCN5C(=O)[C@@H](NC(=O)OC)C(C)C)[nH]4)cc(F)c3-c3cc4cc(-c5cnc([C@@H]6CCCN6C(=O)[C@@H](NC(=O)OC)C6CCOCC6)[nH]5)ccc4n32)s1 (single isomer, unassigned) [Compound 346] | 10.38 |  | 10.43 | 9.65 |  |  | 11.89 |  | 12.00
CCCc1ccc(C2Oc3cc(-c4cnc([C@@H]5CCCN5C(=O)[C@@H](NC(=O)OC)C(C)C)[nH]4)cc(F)c3-c3cc4cc(-c5cnc([C@@H]6CCCN6C(=O)[C@@H](NC(=O)OC)C6CCOCC6)[nH]5)ccc4n32)s1 (single isomer, unassigned) [Compound 347] | 11.64 | 11.72 | 11.55 | 10.89 | 11.59 |  |  |  | 
COC(=O)NC(C(=O)N1CCC[C@H]1c1ncc(-c2ccc3c(c2)cc2n3C(c3ccc(F)s3)Oc3cc(-c4cnc([C@@H]5CCCN5C(=O)[C@@H](NC(=O)OC)C(C)C)[nH]4)cc(F)c3-2)[nH]1)C1C[C@@H](C)O[C@@H](C)C1 (single isomer, unassigned) [Compound 348] | 10.83 |  | 10.49 |  |  | 0.387 | 11.57 |  | 11.72
COC(=O)N[C@H](C(=O)N1CCC[C@H]1c1ncc(-c2cc(F)c3c(c2)OC(c2ccc(CC4CC4)s2)n2c-3cc3cc(-c4cnc([C@@H]5CCCN5C(=O)[C@@H](NC(=O)OC)C5CCOCC5)[nH]4)ccc32)[nH]1)C(C)C (single isomer, unassigned) [Compound 356] | 10.67 |  | 10.76 | 9.82 |  |  | 11.60 |  | 11.60
COC(=O)N[C@H](C(=O)N1CCC[C@H]1c1ncc(-c2cc(F)c3c(c2)OC(c2ccc(CC4CC4)s2)n2c-3cc3cc(-c4cnc([C@@H]5CCCN5C(=O)[C@@H](NC(=O)OC)C5CCOCC5)[nH]4)ccc32)[nH]1)C(C)C (single isomer, unassigned) [Compound 357] | 11.39 | 11.68 | 11.59 | 10.78 | 11.52 |  |  |  | 
CCc1ccc(C2Oc3cc(-c4cnc(C5CCCN5C(=O)C(NC(=O)OC)C5C[C@@H](C)O[C@@H](C)C5)[nH]4)ccc3-c3cc4c(F)c(-c5cnc([C@@H]6CCCN6C(=O)[C@@H](NC(=O)OC)C(C)C)[nH]5)ccc4n32)s1 (single isomer, unassigned) [Compound 359] | 10.08 | 11.44 | 10.28 |  |  | 0.848 | 11.72 |  | 
